Reference: publication PMC10794144, “A novel antibiotic class targeting the lipopolysaccharide transporter” (Nature, 2024)

System: A. baylyi LptB2FGC
Test: LPS-release assay, proteoliposomes to LptA
Format: biochemical, Acinetobacter baylyi
Experimental: Proteoliposomes were prepared as described previously. Aqueous E. coli polar lipid extract (Avanti Polar Lipids) (30 mg ml^−1) and aqueous LPS from E. coli EH100 (Ra mutant; Sigma-Aldrich) (2 mg ml^−1) were sonicated briefly for homogenization. A mixture of 20 mM Tris-HCl (pH 8.0), 150 mM NaCl, 7.5 mg ml^−1 E. coli polar lipids, 0.5 mg ml^−1 LPS and 0.25% DDM was prepared and kept on ice for 10 min. Purified LptB2FGC was added to a final concentration of 0.86 μM, and the mixture was left on ice for 20 min. The mixture was diluted 100-fold with cold 20 mM Tris-HCl (pH 8.0) and 150 mM NaCl and kept on ice for 20 min. The proteoliposomes were pelleted (300,000g, 2 h, 4 °C), resuspended in 20 mM Tris-HCl (pH 8.0) and 150 mM NaCl, diluted 100× and centrifuged (300,000g, 2 h, 4 °C). The pellets were resuspended in a mixture of 20 mM Tris-HCl (pH 8.0), 150 mM NaCl and 10% glycerol (250 μl per 100 μl of the original predilution solution), homogenized by sonication, flash-frozen and stored at −80 °C until use.
The levels of release of LPS from proteoliposomes to LptA were measured as previously described. Assays used 60% proteoliposomes (by volume) in a solution containing 50 mM Tris-HCl (pH 8.0), 500 mM NaCl, 10% glycerol and 2 µM LptA^I36pBPA. Reaction mixtures were incubated with drug for 10 min at room temperature, as applicable. […]

## CN1C(=O)[C@H](CCCCN)NC(=O)[C@H](CCCN)NCc2cccnc2Sc2cccc(-c3ccc(C(=O)O)cc3)c2CNC(=O)[C@@H]1Cc1c[nH]c2ccccc12 [zosurabalpin]
Complexes with LptF E249K or I317N
  LPS transport: did not inhibit LPS transport
wild-type LptB2FGC proteoliposomes, biological triplicate
  LPS extraction to LptA: blocked LPS extraction at concentrations comparable to growth inhibitory concentrations
